These results are taken from patent US12404269B2, “Aminoquinazolinone and aminoisoquinolinone derivatives and application thereof” (ZHEJIANG UNIVERSITY, priority 2018, dated 2025).

Assay [1] has as its target T1, PI3Kα (Homo sapiens, UniProt P42336).
T1 construct: purchased Carna Bioscience
Briefly: PI3Kα molecular activity test (ADP-GLO). Type of assay: biochemical. As to conditions: for Selectivity (PI3Kδ IC50/PI3KαIC50): PI3Kδ IC50/PI3Kα IC50; for IC50: recombinant protein, 100 μM ATP, 2 hours at room temperature. The protocol: (§1) Instrument: ELISA Reader Envision™ (PerkinElmer, USA)
(§2) Materials: Human recombinant PI3K and PI3Kδ proteins, purchased from Carna Bioscience; ADP-GLO kit, purchased from Promega.
(§3) Take the PI3Kα Molecular Activity Test as an Example to Describe the Text Method of the PI3K Subtypes
(§4) PI3K-α recombinant protein and substrate ATP were diluted with kinase reaction buffer (50 mM Tris-HCl, pH 7.4, 2.1 mM DTT, 0.05% Tween-20, 10 mM MgCl2). […] The specific reaction system was 2% of DMSO, 0.8 ng/μL PI3K-α, and 100 μM ATP, the positive compound control groups and control wells were set, and there were 3 multiple-wells for each concentration of each sample. After incubating for 2 hours at room temperature, ADP-GLO Reagent and Kinase Detection Reagent were added respectively, and then Envision™ was used to detect the […] readings. The activity rate of the samples were calculated by the sample readings, and the calculation formula was: activity rate=(ODcompound−ODcontrol)/(ODDMSO−ODcontro) ×100%.
(In ADP-Glo the light output rises with the ADP produced.)

Assay [2] has as its target T2, PI3Kδ (Homo sapiens, UniProt O00329).
T2 construct: purchased Carna Bioscience
Briefly: PI3Kδ molecular activity test (ADP-GLO). Format: biochemical. As to conditions: recombinant protein. The protocol: as §1, §2, §3, §4

For assay [3], the system named is MCF7 (PIK3CA mut). The assay can be described thus: Tumor cell proliferation, CCK8 method, MCF7. Format: cell-based, human. The settings on record: Homo sapiens; CCK8, MCF7; read-out: MCF7 (PIK3CA mut) proliferation IC50. As to the method:
(§5) The IC50 value was calculated using Graphpad Prism V5.0 software.
Background: Tetrazolium assays rely on reduction of a dye to a coloured formazan, in cell work by metabolically active cells.

Assay [4] deals with KPL4 (PIK3CA mut). The assay can be described thus: Tumor cell proliferation, CCK8 method, KPL4. Format: cell-based. As to conditions: CCK8, KPL4; read-out: KPL4 (PIK3CA mut) proliferation IC50. The protocol: as §5
Assay [5] deals with SW48 (PIK3CA mut). The assay can be described thus: Tumor cell proliferation, CCK8 method, SW48. Format: cell-based. The settings on record: Homo sapiens; CCK8, SW48; read-out: SW48 (PIK3CA mut) proliferation IC50. As to the method:
as §5

For assay [6], the system named is ZR-75-1 (PTEN loss). The assay can be described thus: Tumor cell proliferation, CCK8 method, ZR-75-1. Format: cell-based. As to conditions: Homo sapiens; CCK8, ZR-75-1. The protocol:
as §5

T1 sequence (P42336 whole entry): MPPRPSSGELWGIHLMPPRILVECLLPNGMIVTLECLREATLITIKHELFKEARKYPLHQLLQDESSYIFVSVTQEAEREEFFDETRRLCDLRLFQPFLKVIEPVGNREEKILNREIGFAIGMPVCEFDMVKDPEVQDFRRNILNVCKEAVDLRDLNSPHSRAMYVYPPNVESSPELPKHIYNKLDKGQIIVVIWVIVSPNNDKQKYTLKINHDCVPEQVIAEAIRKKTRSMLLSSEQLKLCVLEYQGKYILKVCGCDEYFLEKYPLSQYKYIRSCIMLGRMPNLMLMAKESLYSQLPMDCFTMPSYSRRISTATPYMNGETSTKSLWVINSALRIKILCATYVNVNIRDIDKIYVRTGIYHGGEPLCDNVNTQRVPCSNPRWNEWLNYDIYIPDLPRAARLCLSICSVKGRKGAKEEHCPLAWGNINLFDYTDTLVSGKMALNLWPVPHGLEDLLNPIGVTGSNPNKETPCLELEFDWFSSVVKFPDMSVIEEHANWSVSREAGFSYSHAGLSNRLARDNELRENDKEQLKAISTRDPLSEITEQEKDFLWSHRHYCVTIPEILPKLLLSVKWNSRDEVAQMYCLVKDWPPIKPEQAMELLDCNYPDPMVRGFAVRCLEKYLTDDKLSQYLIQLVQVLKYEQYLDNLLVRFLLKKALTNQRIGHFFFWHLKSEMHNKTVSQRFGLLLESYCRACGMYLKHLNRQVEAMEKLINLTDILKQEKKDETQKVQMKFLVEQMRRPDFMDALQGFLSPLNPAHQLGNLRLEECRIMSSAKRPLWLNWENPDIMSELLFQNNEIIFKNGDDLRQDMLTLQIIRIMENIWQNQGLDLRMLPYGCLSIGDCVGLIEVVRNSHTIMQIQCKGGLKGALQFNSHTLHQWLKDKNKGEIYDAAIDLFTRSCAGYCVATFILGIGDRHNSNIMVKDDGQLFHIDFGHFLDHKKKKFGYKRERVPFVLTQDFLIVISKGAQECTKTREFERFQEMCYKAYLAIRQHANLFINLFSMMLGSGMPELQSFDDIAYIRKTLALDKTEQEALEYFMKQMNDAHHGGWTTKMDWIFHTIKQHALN
T1 sequence (P27986 whole entry partner): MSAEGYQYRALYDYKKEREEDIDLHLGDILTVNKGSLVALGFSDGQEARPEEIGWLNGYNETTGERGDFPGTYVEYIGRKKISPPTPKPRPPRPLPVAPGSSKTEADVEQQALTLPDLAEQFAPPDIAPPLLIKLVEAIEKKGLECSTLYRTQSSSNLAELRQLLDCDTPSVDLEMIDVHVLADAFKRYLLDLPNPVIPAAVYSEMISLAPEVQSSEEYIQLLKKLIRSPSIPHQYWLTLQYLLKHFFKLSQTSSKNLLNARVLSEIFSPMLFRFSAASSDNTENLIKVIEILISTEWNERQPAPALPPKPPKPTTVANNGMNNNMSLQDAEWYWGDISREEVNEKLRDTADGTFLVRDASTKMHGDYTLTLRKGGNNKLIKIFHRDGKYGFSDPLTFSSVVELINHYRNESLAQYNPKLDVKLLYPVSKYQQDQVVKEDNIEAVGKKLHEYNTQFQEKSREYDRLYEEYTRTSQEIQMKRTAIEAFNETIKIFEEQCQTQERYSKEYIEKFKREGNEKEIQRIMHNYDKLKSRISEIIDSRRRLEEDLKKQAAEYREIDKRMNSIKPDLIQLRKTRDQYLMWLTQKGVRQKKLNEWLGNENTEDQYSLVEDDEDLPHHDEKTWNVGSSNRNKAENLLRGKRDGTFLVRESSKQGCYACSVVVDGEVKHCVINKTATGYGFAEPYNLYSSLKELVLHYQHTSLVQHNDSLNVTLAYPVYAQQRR
T2 sequence (O00329 whole entry): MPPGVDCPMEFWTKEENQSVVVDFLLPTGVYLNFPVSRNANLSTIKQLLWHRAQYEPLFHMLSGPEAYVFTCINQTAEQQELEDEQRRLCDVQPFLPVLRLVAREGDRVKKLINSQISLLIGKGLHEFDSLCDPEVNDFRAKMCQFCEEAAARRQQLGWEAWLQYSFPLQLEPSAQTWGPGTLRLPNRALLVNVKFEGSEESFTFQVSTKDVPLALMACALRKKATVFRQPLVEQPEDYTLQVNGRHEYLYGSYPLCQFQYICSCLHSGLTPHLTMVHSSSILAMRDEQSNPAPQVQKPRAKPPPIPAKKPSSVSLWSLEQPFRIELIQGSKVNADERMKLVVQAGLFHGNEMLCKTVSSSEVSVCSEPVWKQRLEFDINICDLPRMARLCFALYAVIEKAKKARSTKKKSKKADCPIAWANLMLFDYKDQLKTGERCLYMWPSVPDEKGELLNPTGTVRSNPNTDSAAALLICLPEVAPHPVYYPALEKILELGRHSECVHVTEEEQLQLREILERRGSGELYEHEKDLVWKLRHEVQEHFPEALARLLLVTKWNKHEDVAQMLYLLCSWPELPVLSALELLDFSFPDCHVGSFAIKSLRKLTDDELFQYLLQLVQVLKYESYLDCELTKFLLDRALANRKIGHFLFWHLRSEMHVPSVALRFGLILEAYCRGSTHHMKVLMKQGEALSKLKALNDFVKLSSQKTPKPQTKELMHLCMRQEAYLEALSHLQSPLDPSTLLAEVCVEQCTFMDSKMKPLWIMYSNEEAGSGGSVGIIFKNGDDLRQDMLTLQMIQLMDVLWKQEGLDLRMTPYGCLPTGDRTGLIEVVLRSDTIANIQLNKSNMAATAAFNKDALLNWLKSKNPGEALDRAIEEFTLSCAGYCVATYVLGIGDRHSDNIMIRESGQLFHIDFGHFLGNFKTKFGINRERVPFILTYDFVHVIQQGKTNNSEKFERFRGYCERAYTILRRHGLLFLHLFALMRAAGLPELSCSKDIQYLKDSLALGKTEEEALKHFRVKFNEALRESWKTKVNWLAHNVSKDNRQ
T2 sequence (P27986 whole entry partner): as the sequence (P27986 whole entry partner) above

With `CCn1c(NC(=O)c2cnc(N)nc2)nc2c3c(ccc2c1=O)OCCCCCCCCO3` [14b-8], in assay [1], the “Selectivity (PI3Kδ IC50/PI3KαIC50)” value is recorded as “I (“I” represents <5 times)”. The IC50 in assay [1] was less than 20 nM; in assay [2], less than 20 nM; in assay [3] it was less than 20 nM; in assay [4] it was 20 to 200 nM; in assay [5] it was 200 to 1000 nM; in assay [6], 200 to 1000 nM.
Take `CCn1c(NC(=O)c2cnc(N)nc2)nc2c(OC)c(OCCS(N)(=O)=O)ccc2c1=O` [8b-11]: the “Selectivity (PI3Kδ IC50/PI3KαIC50)” value in assay [1] was “II (“II” represents 5-10 times)”. Further, the IC50 in assay [1] is less than 20 nM; in assay [2] it was less than 20 nM; in assay [3], less than 20 nM; in assay [4], less than 20 nM; in assay [5], 20 to 200 nM; in assay [6], 20 to 200 nM.
For the compound `CCn1c(NC(=O)c2cnc(N)nc2)nc2c(OC)c(OC[C@H](O)CN3CCOCC3)ccc2c1=O` [8b-28, (R)-2-amino-N-(3-ethyl-7-(2-hydroxy-3-morpholinopropoxy)-8-methoxy-4-oxo-3,4-dihydroquinazolin-2-yl) pyrimidine-5-carboxamide], the “Selectivity (PI3Kδ IC50/PI3KαIC50)” value in assay [1] is “II (“II” represents 5-10 times)”. The IC50 in assay [1] was less than 20 nM; in assay [2], 200 to 1000 nM; in assay [3] it was less than 20 nM; in assay [4], 20 to 200 nM; in assay [5] it was 20 to 200 nM; in assay [6], 200 to 1000 nM.
Consider `COc1c(OCCNS(C)(=O)=O)ccc2c(=O)n(C)c(NC(=O)c3cnc(N)nc3)nc12` [8a-30, 2-amino-N-(8-methoxy-3-methyl-7-(2-(methylsulfonamido)ethoxy)-4-oxo-3,4-dihydroquinazolin-2-yl) pyrimidine-5-carboxamide], for which the “Selectivity (PI3Kδ IC50/PI3KαIC50)” value in assay [1] is reported as “II (“II” represents 5-10 times)”. Also, the IC50 was less than 20 nM in assay [1]; 20 to 200 nM in assay [2]; less than 20 nM in assay [3]; 20 to 200 nM in assay [4]; 20 to 200 nM in assay [5]; 200 to 1000 nM in assay [6].
In the case of `CCn1c(NC(=O)c2cnc(N)nc2)cc2c(OC)c(OCCCN3CCOCC3)ccc2c1=O` [8b′-1], in assay [1], the “Selectivity (PI3Kδ IC50/PI3KαIC50)” value is reported as “I (“I” represents <5 times)”. Also, the IC50 in assay [1] is less than 20 nM; in assay [2], less than 20 nM; in assay [3], less than 20 nM; in assay [4] it was 20 to 200 nM; in assay [5], 20 to 200 nM; in assay [6], 20 to 200 nM.
`COc1c(OC[C@@H](O)CN2CCOCC2)ccc2c(=O)n(C)c(NC(=O)c3ccc(N)nc3)nc12` [8a-38, (S)-6-amino-N-(7-(2-hydroxy-3-morpholinopropoxy)-8-methoxy-3-methyl-4-oxo-3,4-dihydroouinazolin-2-yl) nicotinamide]: the “Selectivity (PI3Kδ IC50/PI3KαIC50)” value in assay [1] was “II (“II” represents 5-10 times)”. For the same compound, the IC50 is less than 20 nM in assay [1]; 20 to 200 nM in assay [2]; less than 20 nM in assay [3]; 20 to 200 nM in assay [4]; 20 to 200 nM in assay [5]; 200 to 1000 nM in assay [6].
Consider `CCn1c(NC(=O)c2ccc(N)nc2)nc2c(OC)c(OC[C@@H](O)CN3CCOCC3)ccc2c1=O` [8b-46, (S)-6-amino-N-(3-ethyl-7-(2-hydroxy-3-morpholinopropoxy)-8-methoxy-4-oxo-3,4-dihydroquinazolin-2-yl) nicotinamide], for which, in assay [1], the “Selectivity (PI3Kδ IC50/PI3KαIC50)” value is on record as “II (“II” represents 5-10 times)”. The IC50 was less than 20 nM in assay [1]; 200 to 1000 nM in assay [2]; less than 20 nM in assay [3]; 20 to 200 nM in assay [4]; 20 to 200 nM in assay [5]; 200 to 1000 nM in assay [6].
For the compound `CCn1c(NC(=O)c2cnc(N)nc2)cc2c3c(ccc2c1=O)OCCOCCOCCO3` [14b′-6], in assay [1], the “Selectivity (PI3Kδ IC50/PI3KαIC50)” value was “I (“I” represents <5 times)”. Further, the IC50 is less than 20 nM in assay [1]; less than 20 nM in assay [2]; less than 20 nM in assay [3]; 20 to 200 nM in assay [4]; 20 to 200 nM in assay [5]; 20 to 200 nM in assay [6].
For `CCn1c(NC(=O)c2cnc(N)nc2)nc2c3c(ccc2c1=O)OCCOCCOCCOCCO3` [14b-11], the “Selectivity (PI3Kδ IC50/PI3KαIC50)” value in assay [1] is reported as “I (“I” represents <5 times)”. Moreover, the IC50 is 20 to 200 nM in assay [1]; 20 to 200 nM in assay [2]; less than 20 nM in assay [3]; 20 to 200 nM in assay [4]; 200 to 1000 nM in assay [5]; 200 to 1000 nM in assay [6].
Regarding `COc1c(OCCNS(C)(=O)=O)ccc2c(=O)n(C)c(NC(=O)c3ccc(N)nc3)nc12` [8a-40, 6-amino-N-(8-methoxy-3-methyl-7-(2-(methylsulfonamido)ethoxy)-4-oxo-3,4-dihydroquinazoline-2-yl) nicotinamide], the “Selectivity (PI3Kδ IC50/PI3KαIC50)” value in assay [1] is “II (“II” represents 5-10 times)”. The IC50 in assay [1] is less than 20 nM; in assay [2], 20 to 200 nM; in assay [3], less than 20 nM; in assay [4] it was 20 to 200 nM; in assay [5], 20 to 200 nM; in assay [6] it was 200 to 1000 nM.
Regarding `Cn1c(NC(=O)c2cnc(N)nc2)nc2c3c(ccc2c1=O)OCCCCCCO3` [14a-6], the “Selectivity (PI3Kδ IC50/PI3KαIC50)” value in assay [1] is reported as “II (“II” represents 5-10 times)”. Moreover, the IC50 was less than 20 nM in assay [1]; 20 to 200 nM in assay [2]; 20 to 200 nM in assay [3]; 200 to 1000 nM in assay [4]; 200 to 1000 nM in assay [5]; 200 to 1000 nM in assay [6].
`CCn1c(NC(=O)c2cnc(N)nc2)nc2c(OC)c(OCCNS(C)(=O)=O)ccc2c1=O` [8b-29, 2-amino-N-(3-ethyl-8-methoxy-7-(2-(methylsulfonamido)ethoxy)-4-oxo-3,4-dihydroquinazolin-2-yl) pyrimidine-5-carboxamide]: the “Selectivity (PI3Kδ IC50/PI3KαIC50)” value in assay [1] is “III (“III” represents >10 times)”. The IC50 in assay [1] is less than 20 nM; in assay [2] it was 200 to 1000 nM; in assay [3] it was less than 20 nM; in assay [4] it was 20 to 200 nM; in assay [5], 20 to 200 nM; in assay [6], 200 to 1000 nM.
On to `CCn1c(NC(=O)c2ccc(N)nc2)nc2c(OC)c(OC[C@H](O)CN3CCOCC3)ccc2c1=O` [8b-47, (R)-6-amino-N-(3-ethyl-7-(2-hydroxy-3-morpholinopropoxy)-8-methoxy-4-oxo-3,4-dihydroquinazolin-2-yl) nicotinamide], for which, in assay [1], the “Selectivity (PI3Kδ IC50/PI3KαIC50)” value is given as “II (“II” represents 5-10 times)”. For the same compound, the IC50 in assay [1] was less than 20 nM; in assay [2], 200 to 1000 nM; in assay [3], less than 20 nM; in assay [4], 20 to 200 nM; in assay [5], 20 to 200 nM; in assay [6] it was 200 to 1000 nM.
Turning to `COc1c(OC[C@H](O)CN2CCOCC2)ccc2c(=O)n(C)c(NC(=O)c3ccc(N)nc3)nc12` [8a-39, (R)-6-amino-N-(7-(2-hydroxy-3-morpholinopropoxy)-8-methoxy-3-methyl-4-oxo-3,4-dihydroquinazolin-2-yl) nicotinamide], the “Selectivity (PI3Kδ IC50/PI3KαIC50)” value in assay [1] is “II (“II” represents 5-10 times)”. Also, the IC50 is less than 20 nM in assay [1]; 20 to 200 nM in assay [2]; less than 20 nM in assay [3]; 20 to 200 nM in assay [4]; 20 to 200 nM in assay [5]; 200 to 1000 nM in assay [6].
For `COc1c(OCCC(N)=O)ccc2c(=O)n(C)c(NC(=O)c3cnc(N)nc3)nc12` [8a-3], the “Selectivity (PI3Kδ IC50/PI3KαIC50)” value in assay [1] is recorded as “III (“III” represents >10 times)”. Besides, the IC50 in assay [1] is less than 20 nM; in assay [2] it was 20 to 200 nM; in assay [3], less than 20 nM; in assay [4], less than 20 nM; in assay [5], less than 20 nM; in assay [6], less than 20 nM.
